These results are taken from ChEMBL document CHEMBL4613205, “Peptide-based and small synthetic molecule inhibitors on PD-1/PD-L1 pathway: A new choice for immunotherapy?” (Eur J Med Chem, 2019).

The structures appear in SMILES notation. pEC50, pIC50: −log10 of the molar value. Bridge positions count the residues as written; N and C are the ends. Square brackets hold non-standard residues; d marks the D form. Peptide text beside a SMILES is read from it. * marks the point of attachment. ξ: configuration not given here. X1 = NC(CO)C(=O)NC(Cc1ccccc1)C(=O)NCCCCN*; ξE = NC(CCC(=O)O)C(=O)O; ξK = NCCCCC(N)C(=O)O

Assay [1] has as its target T1, Programmed cell death 1 ligand 1 (Homo sapiens, UniProt Q9NZQ7). In words: Antagonist activity against PDL1 (unknown origin).
Assay [2] relates to Splenocyte. In words: Antiproliferative activity against mouse splenocytes at 100 nM relative to control. Type of assay: functional.
Assay [3] relates to CT26. The experiment in a line: Antitumor activity against mouse CT26 cells xenografted in mouse assessed as reduction in tumor growth at 3 mg/kg after 25 days relative to control. Type of assay: functional. As to conditions: CT26, 600 h, read-out: TGI.
Assay [4] addresses T1, Programmed cell death 1 ligand 1. The experiment in a line: Inhibition of PDL1 (unknown origin).
The target of assay [5] is T2, Programmed cell death 1 ligand 2 (Homo sapiens, UniProt Q9BQ51).
T2 sequence (Q9BQ51 whole entry): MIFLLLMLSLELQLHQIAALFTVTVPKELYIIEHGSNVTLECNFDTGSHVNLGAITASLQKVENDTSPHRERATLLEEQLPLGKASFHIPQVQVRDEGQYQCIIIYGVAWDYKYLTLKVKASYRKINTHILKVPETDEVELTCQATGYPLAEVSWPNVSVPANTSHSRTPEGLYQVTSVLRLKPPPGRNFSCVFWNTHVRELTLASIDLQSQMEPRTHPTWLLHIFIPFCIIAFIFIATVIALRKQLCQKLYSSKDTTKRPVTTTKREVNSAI
In words: Inhibition of PDL2 (unknown origin).

For assay [6], the system named is Splenocyte. In words: Antiproliferative activity against mouse splenocytes relative to control. Type of assay: functional. On the set-up: concentration or dose not given beside the values.
In assay [7] the target is Programmed cell death protein 1/Programmed cell death 1 ligand 1 (Homo sapiens, UniProt Q15116+Q9NZQ7). The experiment in a line: Inhibition of human PD1/PDL1 protein-protein interaction by HTRF assay. Type of assay: protein-complex assay. Background: Time-resolved FRET reads energy transfer from a long-lived donor to a nearby acceptor.
The subject of assay [8] is 4T1. In words: Antitumor activity against mouse 4T1 cells xenografted in mouse assessed as reduction in tumor growth at 3 mg/kg, sc qd after 40 days relative to control. The conditions noted are these: 4T1, sc, 960 h, read-out: TGI. Type of assay: functional.
The subject of assay [9] is MDA-MB-231. The experiment in a line: Antiproliferative activity against human MDA-MB-231 cells. Type of assay: functional, cell-based.
For assay [10], the system named is HEK293. The experiment in a line: Antiproliferative activity against HEK293 cells. Type of assay: functional, cell-based. The conditions noted are these: Homo sapiens.
Assay [11] concerns B16-F10. In words: Antitumor activity against mouse B16F10 cells xenografted in mouse assessed as reduction in tumor growth at 5 mg/kg, sc qd after 14 days relative to control. As to conditions: 336 h, read-out: TGI. Type of assay: functional.

T1 sequence (Q9NZQ7 whole entry): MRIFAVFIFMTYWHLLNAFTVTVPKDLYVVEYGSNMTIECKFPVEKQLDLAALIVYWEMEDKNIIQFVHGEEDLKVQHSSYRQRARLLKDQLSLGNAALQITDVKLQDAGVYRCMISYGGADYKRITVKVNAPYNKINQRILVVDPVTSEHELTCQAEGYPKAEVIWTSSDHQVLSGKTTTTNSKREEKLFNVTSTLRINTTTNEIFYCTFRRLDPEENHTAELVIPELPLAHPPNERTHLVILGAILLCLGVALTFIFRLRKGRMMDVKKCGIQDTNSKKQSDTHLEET
Chain of Programmed cell death protein 1/Programmed cell death 1 ligand 1 (Q15116 whole entry): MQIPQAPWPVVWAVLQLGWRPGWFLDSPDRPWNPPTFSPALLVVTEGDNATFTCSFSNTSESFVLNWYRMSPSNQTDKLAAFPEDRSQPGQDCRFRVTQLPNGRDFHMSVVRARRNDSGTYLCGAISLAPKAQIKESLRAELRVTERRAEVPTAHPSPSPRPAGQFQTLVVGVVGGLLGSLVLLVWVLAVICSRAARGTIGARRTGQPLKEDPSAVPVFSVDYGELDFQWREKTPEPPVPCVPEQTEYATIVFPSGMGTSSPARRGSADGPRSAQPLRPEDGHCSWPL
Chain of Programmed cell death protein 1/Programmed cell death 1 ligand 1 (Q9NZQ7 whole entry): as the sequence (Q9NZQ7 whole entry) above

As usually defined, the pIC50 is the IC50 on a negative log10 scale, so that one unit is a factor of ten. Consider `O=C(/C=C/c1ccc(O)c(O)c1)O[C@H]1C[C@@](O)(C(=O)O)C[C@H](O)[C@@H]1O`, for which, in assay [1], the pIC50 was 4.44.

Broadly, the pEC50 is −log10 of the EC50, conventionally taken in molar units. Take `C[C@@H](O)[C@H](NC(=O)N[C@@H](CC(N)=O)C(=O)NNC(=O)[C@@H](N)CO)C(=O)O`: the Activity in assay [2] is listed as 68%. Also, in assay [3], the inhibition in vivo at 3 mg/kg amounted to 46%. Moreover, the pEC50 is 7.52 in assay [4] and 7.40 in assay [5].

Molecule `C[C@@H](O)[C@H](N)c1nnc([C@H](CCC(N)=O)NC(=O)N[C@@H](CO)C(=O)O)o1` yielded an Activity in assay [6] of 92%.

For the molecule `C#CC[C@H](NC(=O)N[C@H](C(=O)O)[C@@H](C)O)c1nc(-c2cnccn2)no1`, the Activity in assay [6] is reported as 92%.

The molecule `NCCCC[C@H](NC(=O)N[C@@H](CC(N)=O)C(=O)NNC(=O)[C@@H](N)CO)C(=O)O` showed an Activity in assay [6] of 87%.

`NC(=O)C[C@H](N)c1nc([C@@H](N)CO)no1` registered an Activity in assay [2] of 93%.

As for `Cc1c(/C=C/c2cc(CNC(C)(CO)C(=O)O)ccc2C(F)(F)F)cccc1-c1ccc2c(c1)OCCO2` (configuration not stated), the pIC50 in [7] was 7.74.

Regarding `N#Cc1cncc(COc2cc(O[C@H]3CCc4c(-c5ccccc5)cccc43)c(Cl)cc2CN[C@@H](CO)C(=O)O)c1`, the pIC50 in [1] is greater than 7.00.

Turning to `N#Cc1c(NC(=O)c2ccc(CNCCO)cn2)cccc1-c1ccccc1`, in [7], the pIC50 was greater than 8.00.

`NC(=O)C[C@H](NC(=O)N[C@@H](CO)C(=O)O)c1nc([C@@H](N)CO)no1` came in with an Activity in assay [6] of 91%.

With `CC[C@H](C)[C@H](NC(=O)[C@H](CCC(N)=O)NC(=O)[C@H](C)NC(=O)[C@H](CCCCN)NC(=O)[C@@H]1CCCN1C(=O)[C@H](C)NC(=O)[C@H](CC(C)C)NC(=O)[C@H](CCC(N)=O)NC(=O)[C@@H](NC(=O)[C@@H](NC(=O)[C@H](CCCNC(=N)N)NC(=O)[C@H](Cc1ccccc1)NC(=O)[C@H](CCCCNC(=O)[C@H](Cc1ccccc1)NC(=O)[C@H](CO)NC(=O)[C@H](CCC(=O)O)NC(=O)[C@H](CO)NC(=O)[C@@H](NC(=O)[C@H](CC(N)=O)NC(=O)[C@@H](N)CO)[C@@H](C)O)NC(=O)[C@H](Cc1ccccc1)NC(=O)[C@H](CO)NC(=O)[C@H](CCC(=O)O)NC(=O)[C@H](CO)NC(=O)[C@@H](NC(=O)[C@H](CC(N)=O)NC(=O)[C@@H](N)CO)[C@@H](C)O)C(C)C)[C@@H](C)O)C(=O)N[C@@H](CCCCN)C(=O)N[C@@H](CCC(=O)O)C(N)=O`, in assay [8], the inhibition in vivo at 3 mg/kg is 44%. In addition, the figures for the pIC50 in assay [9] and in assay [10] were 9.39 and 9.14, respectively. Besides, in assay [11], the inhibition in vivo at 5 mg/kg was 44%.

In turn, `N#Cc1cccc(COc2cc(OCc3cccc(-c4ccccc4)c3Br)c(Cl)cc2CN2CCCC[C@H]2C(=O)O)c1` gave a pIC50 in [7] of 3.10.

As to `Cc1c(-c2ccccc2)cccc1-c1nc2c(s1)CNCC2`, the pIC50 in [1] was greater than 7.00.

As for `N#Cc1c(-c2ccc3c(c2)OCCO3)cccc1N1CCC(N[C@H]2C[C@@H](O)C2)CC1`, the pIC50 in assay [1] was greater than 7.00.

Take `Cc1c(COc2cc(OCc3cncc(C#N)c3)c(CN(C)C(CO)(CO)CO)cc2Cl)cccc1-c1cccc(OCCCN2CCC(F)(F)C2)c1C`: the pIC50 in assay [7] was 9.30.

`Cc1c(-c2ccccc2)cccc1-c1nc2cc(CNCCO)ccc2o1` had a pIC50 in assay [1] greater than 7.00.

As for `NC(=O)C[C@H](NC(=O)N[C@@H](CO)C(=O)O)c1nnc(-c2cnccn2)o1`, in [6], the Activity turned out to be 63%.

As to `Cc1c(-c2ccccc2)cccc1-c1cn2nc(CNCCO)cnc2n1`, in assay [1], the pIC50 was greater than 7.00.

The molecule `NCCCC[C@H](N)c1nnc([C@H](CC(N)=O)NC(=O)N[C@@H](CCC(=O)O)C(=O)O)o1` displayed an Activity in assay [6] of 79%.

Consider `Cc1c(COc2cc(OCc3cncc(C#N)c3)c(CN(C)C(C)(CO)CO)cc2Cl)cccc1-c1ccnc(OCCCN2CCCCC2)c1Cl`, for which the pIC50 in assay [7] was greater than 8.00.

Consider `CCCNC(=O)CC[C@H](NC(=O)N[C@H](C(=O)O)[C@@H](C)O)c1nc([C@@H](N)CO)no1`, for which, in [2], the Activity turned out to be 119%.

Consider `Cc1c(NC(=O)c2cc(CN3CCCC[C@H]3C(=O)O)cn(C)c2=O)cccc1-c1ccccc1`, for which the pIC50 in assay [7] is greater than 7.00.

In assay [6], `O=C(O)C[C@H]1NC(=O)N[C@H](CO)C(=O)NCCOCCOCC(=O)N[C@@H](CO)C(=O)NNC1=O` yielded an Activity of 92%.

As for `C[C@@H](O)[C@H](NC(=O)[C@H](CC(N)=O)NC(=O)[C@@H](N)CO)C(=O)N[C@@H](CO)C(=O)NC(CCC(=O)NCCCCNC(=O)C(Cc1ccccc1)NC(=O)C(N)CO)C(N)=O` (some centres not stated) (H-SNTS[ξE](X1)-NH2), the inhibition in vivo at 5 mg/kg in assay [11] stood at 64%.

Molecule `C[C@@H](O)[C@@H]1NC(=O)C(NC(=O)[C@@H](N)CO)CCC(=O)NCCCCC(C(=O)N[C@@H](CO)C(=O)N[C@@H](Cc2ccccc2)C(N)=O)NC(=O)[C@H](CO)NC1=O` (some centres not stated) (H-S[ξE]TS[ξK]SF-NH2; lactam 2-5) returned an Activity in [2] of 78%. The inhibition in vivo at 5 mg/kg in assay [11] came out at 54%.
